Test results reported in patent US20170252327A1, “Methods of Modulating Gastrointestinal Tract Flora Levels with Alkaline Phosphatase” (priority 2008, published 2017).

Legend:
gut microbiota [1] = experiment: Restoration of gut flora after streptomycin treatment with or without cIAP (stool culture in LB media); type: in vivo, mice (C57BL/6)
Procedure: To address the role of intestinal alkaline phosphatase on the gastrointestinal tract flora of mammals, an experiment was performed in which five approximately six week old mice (C57BL/6) of each test group were treated with an antimicrobial drug, streptomycin, in the presence or absence of calf intestinal alkaline phosphatase (cIAP) (Sigma, St. Louis, Mo.). Both streptomycin (5 mg/ml) and cIAP (50 units/ml) were administered orally with the animal's drinking water. Individual stool samples of each group were cultured in LB media each day and analyzed for the presence/absence of gut flora. The gastrointestinal tract flora of mice before antibiotic treatment was considered as a baseline control for the normal gut flora (present in all samples).

[2] = tested on: Gram-negative bacteria (mostly E. coli); experiment: Restoration of commensal Gram-negative gut flora in streptomycin-treated WT mice with or without cIAP (MacConkey agar); type: in vivo; conditions: streptomycin 5 mg/ml in drinking water
Procedure: Accordingly, experiments were performed in which groups of WT mice (n=10) were treated orally with the antibiotic streptomycin in the presence or absence of cIAP. Streptomycin (5 mg/ml) and cIAP (200 U/ml for cIAP^+ Group, n=5) or ‘vehicle for cIAP’ (20 μl/ml ‘vehicle for cIAP’ (50 mM KCl, 10 mM Tris-HCl (pH 8.2), 1 mM MgCl, 0.1 mM ZnCl2, and 50% glycerol) in drinking water for control cIAP^− Group, n=5) were administered in the animals' drinking water and fecal cultures were performed.
Individual stool samples were cultured each day on MacConkey agar media. […] After discontinuation of antibiotic treatment, the time of appearance (Day) of Gram-negative bacteria (mostly E. coli, occasionally P. mirabilis) in stool samples was recorded for each animal. The experiment was repeated six times, which raised the total number of animals in each group to 39 (n=39), however, duration of each experiment varied (7-35 days). Data was compiled from all six experiments and the number of animals with E. coli in each group on a specific day was recorded.

gut microbiota [3] = experiment: Restoration of gut flora after ampicillin treatment with or without cIAP (stool culture in LB media); type: in vivo, mice (C57BL/6)
Procedure: An experiment was performed in which five mice (C57BL/6) of each test group, approximately 6 weeks old, were treated with 1 mg/ml of the antimicrobial drug ampicillin, in the presence or absence of calf intestinal alkaline phosphatase (cIAP) (New England Biolabs, Ipswich, Mass.). Ampicillin was administered orally with the animal's drinking water at a concentration of 1 mg/ml, and 250 units of cIAP were administered twice daily as oral gavage. Individual stool samples of each group were cultured in LB media each day and analyzed for the presence/absence of the gut flora. The gut flora of mice before receiving the antibiotic was considered as a baseline control for normal gastrointestinal tract flora (present in all samples). […] Both treatment groups received ampicillin for 10 days.

IAP = experiment: Stool IAP activity in PTU-treated mice given T3 (hyperthyroid); type: in vivo
Excerpt: In WT mice, IAP (Akp3 isoform) is expressed at postnatal Day 15 (Narisawa et al., Am J Physiol Gastrointest Liver Physiol, 293:G1068, 2007), while IAP-KO mice lack this enzyme for their entire life. However, a variety of pathophysiological conditions can lead to altered IAP expression in adult WT animals, which may affect their intestinal flora. Accordingly, stool samples of hypothyroid and hyperthyroid mice were examined, since IAP is known to be silenced in hypothyroid animals and dramatically over-expressed in hyperthyroid animals (Hodin et al., Surgery, 120:138, 1996; Malo et al., Mol Endocrinol, 18:1941, 2004). For 32 weeks, groups of mice (n=5) were given water containing 0.05% propylthiouracil (PTU) in order to induce hypothyroidism by inhibiting both thyroid hormone biosynthesis and peripheral T4 deiodination (Cooper et al., Biochem Pharmacol, 33:3391, 1984). After 6 weeks of PTU treatment, one group received a daily i.p. injection of T3 (30 μg per 100 gm body weight, hyperthyroid) and the other group received a daily i.p. injection of normal saline (0.9% NaCl, hypothyroid) for 26 weeks (Hodin et al., Surgery, 120:138, 1996).
IAP activity was determined following the protocol as described by Baykov et al. (Anal Biochem, 171:266, 1988). Briefly, individual stool samples were homogenized in water (10 mg/100 μl), centrifuged and supernatant was collected. Then 25 μl of the stool supernatant (or aqueous cIAP solution) were mixed with 175 μl phosphatase assay reagent containing 5 mM of p-nitrophenyl phosphate (pNPP) followed by determining optical density at 405 nm after a specific time period when the samples usually turned yellow due to release of p-nitrophenol. Protein concentrations of stool supernatants were measured using a kit from Bio-Rad Laboratories (Hercules, Calif.). The specific activity of the enzyme, expressed as pmole pNPP hydrolyzed per minute per μg of protein, and CFU per gm of stool +/− SEM were determined and the results are shown in FIG. 3. […]

`[H]/N=C(/N)N[C@H]1[C@H](O)[C@@H](O)[C@H](O[C@@H]2O[C@@H](C)[C@](O)(C=O)[C@H]2O[C@@H]2O[C@@H](CO)[C@H](O)[C@@H](O)[C@@H]2NC)[C@@H](N/C(N)=N\[H])[C@@H]1O` [Streptomycin alone, streptomycin] was tested, and the “Bacterial growth in stools” value (gut microbiota [1]; 24 hours after discontinuation of streptomycin) was “no bacterial growth”, the “Bacteria in the stool” value (gut microbiota [1]; Day 1) was “Absent” and the “Bacteria in the stool” value (gut microbiota [1]; Day 2) was “Absent”. For the same molecule, the “Bacteria in the stool” value (gut microbiota [1]; Day 3) was “Absent”, the “Bacteria in the stool” value (gut microbiota [1]; Day 4) was “Absent” and the “Bacteria in the stool” value (gut microbiota [1]; Day 5) was “Absent”. For the same molecule, the “Bacteria in the stool” value (gut microbiota [1]; Day 6) was “Absent”, the “Bacteria in the stool” value (gut microbiota [1]; Day 7) was “Absent” and the “Bacteria in the stool” value (gut microbiota [1]; Day 8) was “Absent”. For the same molecule, the “Bacteria in the stool” value (gut microbiota [1]; Day 9) was “Absent”, the “Bacteria in the stool” value (gut microbiota [1]; Day 10) was “Present” and the “Time stools remained sterile” value (gut microbiota [1]; after streptomycin for 24 hours) was “up to nine”. The “Day at which stools showed signs of the normal gastrointestinal tract flora” value (gut microbiota [1]; streptomycin for 24 hours) was 10 days and the “Time to elimination of aerobic Gram-negative organisms in all animals” value [2] was at most 24 h.
For `CC1(C)S[C@@H]2[C@H](NC(=O)[C@H](N)c3ccccc3)C(=O)N2[C@H]1C(=O)O` [Ampicillin alone, ampicillin], the “Bacteria in the stool” value (gut microbiota [3]; Day 1) was “Present”, the “Bacteria in the stool” value (gut microbiota [3]; Day 2) was “Absent” and the “Bacteria in the stool” value (gut microbiota [3]; Day 3) was “Absent”. The “Bacteria in the stool” value (gut microbiota [3]; Day 4) was “Absent”, the “Bacteria in the stool” value (gut microbiota [3]; Day 5) was “Absent” and the “Bacteria in the stool” value (gut microbiota [3]; Day 6) was “Absent”. For the same molecule, the “Bacteria in the stool” value (gut microbiota [3]; Day 7) was “Absent”, the “Bacteria in the stool” value (gut microbiota [3]; Day 8) was “Absent” and the “Bacteria in the stool” value (gut microbiota [3]; Day 9) was “Absent”. For the same molecule, the “Bacteria in the stool” value (gut microbiota [3]; Day 10) was “Absent”, the “Bacteria in the stool” value (gut microbiota [3]; Day 11) was “Absent” and the “Bacteria in the stool” value (gut microbiota [3]; Day 12) was “Absent”. The “Bacteria in the stool” value (gut microbiota [3]; Day 13) was “Absent”, the “Bacteria in the stool” value (gut microbiota [3]; Day 14) was “Absent” and the “Bacteria in the stool” value (gut microbiota [3]; Day 15) was “Absent”. For the same molecule, the “Bacteria in the stool” value (gut microbiota [3]; Day 16) was “Absent”, the “Bacteria in the stool” value (gut microbiota [3]; Day 17) was “Absent” and the “Bacteria in the stool” value (gut microbiota [3]; Day 18) was “Absent”. The “Bacteria in the stool” value (gut microbiota [3]; Day 19) was “Absent”, the “Bacteria in the stool” value (gut microbiota [3]; Day 20) was “Absent” and the “Bacteria in the stool” value (gut microbiota [3]; Day 21) was “Absent”. The “Bacteria in the stool” value (gut microbiota [3]; Day 22) was “Absent”, the “Bacteria in the stool” value (gut microbiota [3]; Day 23) was “Absent” and the “Bacteria in the stool” value (gut microbiota [3]; Day 24) was “Present”. The “Day at which stools showed normal gut flora” value (gut microbiota [3]; ampicillin for 10 days) was 24 days and the “No bacterial growth in stools until” value (gut microbiota [3]; ampicillin for 10 days) was 23 days.
With `N[C@@H](Cc1cc(I)c(Oc2ccc(O)c(I)c2)c(I)c1)C(=O)O` [T3] the “Stool IAP activity, higher compared to euthyroid animals” value (IAP; Week 32, hyperthyroid animals) was “approximately 7 fold”, the “Stool IAP activity, higher compared to hypothyroid animals” value (IAP; Week 32, hyperthyroid animals) was about 15 fold and the “IAP activity in stools” value (IAP; Weeks 12-32, daily i.p. T3) was “increased IAP activity”.
